Measured values as given in patent US6964949B2, “Pharmaceutical compositions for promoting the growth of gram-positive bacilli and increasing the acidity in the vagina and the use thereof” (Shanghai Jiao Da Onlly Co., Ltd., priority 2000, dated 2005).

Columns and labels:
Type in all cases: cell-based
Settings in all cases: 1.0% yeast extract, pH 6.2, candle jar, 37° C.
Gram-positive bacilli = test: Experiment Example 2: comparison of saccharides, specimen culture, Gram smear
Source text: (§1) • (1)The preparation of the compositions: Different saccharides were used respectively to prepare the following compositions according to the methods mentioned above: glucose, fructose, galactose, mannose, maltose, sucrose, lactose, lactulose, mycose, cellobiose, melibiose, melitose, malto-oligosaccharide, isomaltooligosaccharide and fructooligosaccharide, dextrin, starch, and glycogen: • A. 5% glucose, 1.0% yeast extract, 1.6% xanthan gum, pH adjusted to 6.2; • B. 5% fructose, 1.0% yeast extract, 1.6% xanthan gum, pH adjusted to 6.2; • C. 5% galactose, 1.0% yeast extract, 1.6% xanthan gum, pH adjusted to 6.2; • D. 5% mannose, 1.0% yeast extract, 1.6% xanthan gum, pH adjusted to 6.2; • E. 10.0% maltose, 1.0% yeast extract, 1.6% xanthan gum, pH adjusted to 6.2; • F. 10.0% sucrose, 1.0% yeast extract, 1.6% xanthan gum, pH adjusted to 6.2; • G. 10.0% lactose, 1.0% yeast extract, 1.6% xanthan gum, pH adjusted to 6.2; • H. 10.0% lactulose, 1.0% yeast extract, 1.6% xanthan gum, pH adjusted to 6.2; • I. 10.0% cellobiose, 1.0% yeast extract, 1.6% xanthan gum, pH adjusted to 6.2; • J. 10.0% mycose, 1.0% yeast extract, 1.6% xanthan gum, pH adjusted to 6.2; • K. 10.0% melibiose, 1.0% yeast extract, 1.6% xanthan gum, pH adjusted to 6.2; • L. 10.0% melitose, 1.0% yeast extract, 1.6% xanthan gum, pH adjusted to 6.2; • M. 10.0% maltooligosaccharide, 1.0% yeast extract, 1.6% xanthan gum, pH adjusted to 6.2; • N. 10.0% isomaltooligosaccharide, 1.0% yeast extract, 1.6% xanthan gum, pH adjusted to 6.2; • O. 10.0% fructooligosaccharide, 1.0% yeast extract, 1.6% xanthan gum, pH adjusted to 6.2; • P. 10.0% dextrin, 1.0% yeast extract, 0.5% xanthan gum, pH adjusted to 6.2; • Q. 10.0% starch, 1.0% yeast extract, pH adjusted to 6.2; • R. 10.0% glycogen, 1.0% yeast extract, 1.6% xanthan gum, pH adjusted to 6.2. • (2)The preparation of the test tubes: The compositions prepared above were filled into test tubes, with each tube containing 5 ml, sterilized, and kept until use for experiment. • (3) Specimen suspension: Vaginal secretion was taken from one of the patients suffering from typical bacterial vagmosis with a cotton swab, then the swab was washed in 2 ml sterilized Trypcase-soy Broth immediately, and thus the specimen suspension was ready. […] Then the tubes were placed in a candle jar and cultivated at 37° C. After 24 hours and 48 hours' culture, culture samples were taken respectively from each of the tubes, then the Gram smears of the samples were observed and the pH values of culture samples were tested. […] Meanwhile the pH values in most of the composition tubes decreased to different levels. […] And maltose and sucrose exert better effect in promoting the growth of Gram-positive bacilli and the production of acids than that of the other kinds of oligosaccharides.

Gram-negative bacilli = test: as above
Source text: as §1

Gram-positive cocci = test: as above
Source text: as §1

Gram-negative cocci = test: as above
Source text: as §1

[1] = system: vaginal secretion specimen of a patient suffering from typical bacterial vaginosis; test: Experiment Example 2: pH of culture samples (production of acids)
Source text: as §1

[2] = 10.0% saccharide, 1.6% xanthan gum (dextrin 0.5%, starch none)
[3] = 5% saccharide, 1.6% xanthan gum

Compound	Bacteria G + b (Gram-positive bacilli), 24 hours-culture (Gram-positive bacilli; [2])	Bacteria G + b (Gram-positive bacilli), 48 hours-culture (Gram-positive bacilli; [2])	Bacteria G − b (Gram-negative bacilli), 24 hours-culture (Gram-negative bacilli; [2])	Bacteria G − b (Gram-negative bacilli), 48 hours-culture (Gram-negative bacilli; [2])	Bacteria G + c (Gram-positive cocci), 24 hours-culture (Gram-positive cocci; [2])	Bacteria G + c (Gram-positive cocci), 48 hours-culture (Gram-positive cocci; [2])	Bacteria G − c (Gram-negative cocci), 24 hours-culture (Gram-negative cocci; [2])	Bacteria G − c (Gram-negative cocci), 48 hours-culture (Gram-negative cocci; [2])	pH, 24 hours-culture [1, 2]	pH, 48 hours-culture [1, 2]	Bacteria G + b (Gram-positive bacilli), 24 hours-culture (Gram-positive bacilli; [3])	Bacteria G + b (Gram-positive bacilli), 48 hours-culture (Gram-positive bacilli; [3])	Bacteria G − b (Gram-negative bacilli), 24 hours-culture (Gram-negative bacilli; [3])	Bacteria G − b (Gram-negative bacilli), 48 hours-culture (Gram-negative bacilli; [3])	Bacteria G + c (Gram-positive cocci), 24 hours-culture (Gram-positive cocci; [3])	Bacteria G + c (Gram-positive cocci), 48 hours-culture (Gram-positive cocci; [3])	Bacteria G − c (Gram-negative cocci), 24 hours-culture (Gram-negative cocci; [3])	Bacteria G − c (Gram-negative cocci), 48 hours-culture (Gram-negative cocci; [3])	pH, 24 hours-culture [1, 3]	pH, 48 hours-culture [1, 3]
O=C[C@H](O)[C@@H](O)[C@H](O[C@@H]1O[C@H](CO)[C@@H](O)[C@H](O)[C@H]1O)[C@H](O)CO [Cellobiose, cellobiose]	G + b, ++ (About 10-99 bacteria per field of vision under oil-immersion lens)	G + b, ++ (About 10-99 bacteria per field of vision under oil-immersion lens)	G − b, + (1-9 bacteria per field of vision under oil-immersion lens)	G − b, + (1-9 bacteria per field of vision under oil-immersion lens)	G + c, + (1-9 bacteria per field of vision under oil-immersion lens)	G + c, + (1-9 bacteria per field of vision under oil-immersion lens)	G − c, − (No or less than one bacterium per field of version under oil-immersion lens)	G − c, − (No or less than one bacterium per field of version under oil-immersion lens)	5.8	5.8	–	–	–	–	–	–	–	–	–	–
O=C[C@H](O)[C@@H](O)[C@@H](O)[C@H](O)CO [Galactose, galactose]	–	–	–	–	–	–	–	–	–	–	G + b, ++ (About 10-99 bacteria per field of vision under oil-immersion lens)	G + b, + (1-9 bacteria per field of vision under oil-immersion lens)	G − b, − (No or less than one bacterium per field of version under oil-immersion lens)	G − b, + (1-9 bacteria per field of vision under oil-immersion lens)	G + c, ++ (About 10-99 bacteria per field of vision under oil-immersion lens)	G + c, ++ (About 10-99 bacteria per field of vision under oil-immersion lens)	G − c, − (No or less than one bacterium per field of version under oil-immersion lens)	G − c, − (No or less than one bacterium per field of version under oil-immersion lens)	6.7	6.7
OC[C@H]1O[C@@H](O[C@@H]2[C@@H](CO)OC(O)(CO)[C@H]2O)[C@H](O)[C@@H](O)[C@H]1O (mixture of isomers) [Lactulose, lactulose]	G + b, +++ (About 100 bacteria or more per field vision under oil-immersion lens, even uncountable)	G + b, ++ (About 10-99 bacteria per field of vision under oil-immersion lens)	G − b, + (1-9 bacteria per field of vision under oil-immersion lens)	G − b, + (1-9 bacteria per field of vision under oil-immersion lens)	G + c, + (1-9 bacteria per field of vision under oil-immersion lens)	G + c, + (1-9 bacteria per field of vision under oil-immersion lens)	G − c, − (No or less than one bacterium per field of version under oil-immersion lens)	G − c, − (No or less than one bacterium per field of version under oil-immersion lens)	5.8-6.2	6.2	–	–	–	–	–	–	–	–	–	–
O=C(CO)[C@@H](O)[C@H](O)[C@H](O)CO [Fructose, fructose]	–	–	–	–	–	–	–	–	–	–	G + b, ++ (About 10-99 bacteria per field of vision under oil-immersion lens)	G + b, +++ (About 100 bacteria or more per field vision under oil-immersion lens, even uncountable)	G − b, + (1-9 bacteria per field of vision under oil-immersion lens)	G − b, + (1-9 bacteria per field of vision under oil-immersion lens)	G + c, + (1-9 bacteria per field of vision under oil-immersion lens)	G + c, + (1-9 bacteria per field of vision under oil-immersion lens)	G − c, − (No or less than one bacterium per field of version under oil-immersion lens)	G − c, − (No or less than one bacterium per field of version under oil-immersion lens)	5.4-5.8	5.4-5.8
